Tests used:
barnyardgrass [1] = assay: Test Example 3: paddy pot test, application under submerged conditions; type: in vivo, Echinochloa crus-galli L.; settings: active ingredient 250 g/ha; submerged application at 0.5 leaf stage; visually observed 14 days after application; 0 = non-treated, 100 = complete kill
Procedure, shortened: (§1)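 Paddy soil pots; seeds sown, lightly covered; flooded 0.5–1 cm in greenhouse; wapato tubers planted day 1–2; flood raised to 3–4 cm. Submerged pipette application at 0.5 leaf / primary leaf stage. Visual score day 14, 0–100%.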

soybean [2] = assay: Test Example 2: soil surface treatment, upland pot test; type: in vivo, Glycine max Merr.; settings: active ingredient 500 g/ha, observed 20th to 28th day
Procedure, shortened: (§2)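 Pots (1/170,000 ha) filled with upland field soil were seeded, then treated on the following day by spraying the soil surface with diluted formulation (1,500 L/ha) at a fixed a.i. dose. Control was rated visually on a 0–100% scale at 20–28 days.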

japanese bulrush = assay: Test Example 3: paddy pot test, application under submerged conditions; type: in vivo, Scirpus juncoides; settings: active ingredient 250 g/ha; submerged application at 0.5 leaf stage; visually observed 14 days after application; 0 = non-treated, 100 = complete kill
Procedure, shortened: as §1

redroot pigweed [3] = assay: Test Example 1: foliage treatment, upland pot test; type: in vivo, Amaranthus retroflexus L.; settings: active ingredient 500 g/ha, observed 18th to 23rd day, 0 = non-treated, 100 = complete kill
prickly sida [4] = assay: Test Example 2: soil surface treatment, upland pot test; type: in vivo, Sida spinosa L.; settings: active ingredient 500 g/ha, observed 20th to 28th day
Procedure, shortened: as §2

green foxtail [5] = assay: as above; type: in vivo, Setaria viridis L.; settings: active ingredient 500 g/ha, observed 20th to 28th day
Procedure, shortened: as §2

rice [6] = assay: Test Example 1: foliage treatment, upland pot test; type: in vivo, Oryza sativa L.; settings: crop, active ingredient 500 g/ha, observed 18th to 23rd day, 0 = non-treated, 100 = complete kill
Procedure, shortened: (§3)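 Sow in upland field soil; grow to leaf stage (barnyardgrass 1.3–2.8, soybean 0.1–0.4, wheat 1.3–2.4, rice 1.2–2.6); spray foliage with compound in water, 500 L/ha, spreader 0.1% (v/v); assess visually at 18–23 d, 0 (as untreated) to 100 (full kill).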

soybean [7] = assay: Test Example 1: foliage treatment, upland pot test; type: in vivo, Glycine max Merr.; settings: crop, active ingredient 500 g/ha, observed 18th to 23rd day, 0 = non-treated, 100 = complete kill
Procedure, shortened: as §3

rice (var. Nihonbare) = assay: Test Example 3: paddy pot test, transplanted rice; type: in vivo, Oryza sativa L.; settings: active ingredient 250 g/ha, applied 4th day after transplantation, visually observed 21st day after application, 0 = non-treated, 100 = complete kill
Procedure, shortened: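 Visual crop-injury rating (0 = as untreated, 100 = complete kill, %) taken 21 days post-application. Treatment: formulated compound, water-diluted, pipetted into 3–4 cm flood water at a preset active-ingredient dose, 4 days after transplanting 2-leaf Nihonbare rice 3 cm deep in puddled paddy soil.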

prickly sida [8] = assay: Test Example 1: foliage treatment, upland pot test; type: in vivo, Sida spinosa L.; settings: active ingredient 500 g/ha, observed 18th to 23rd day, 0 = non-treated, 100 = complete kill
crabgrass [9] = assay: Test Example 1: foliage treatment, upland pot test; type: in vivo, Digitaria sanguinalis L.; settings: active ingredient 500 g/ha, observed 18th to 23rd day, 0 = non-treated, 100 = complete kill
velvetleaf [10] = assay: Test Example 1: foliage treatment, upland pot test; type: in vivo, Abutilon theophrasti MEDIC.; settings: active ingredient 500 g/ha, observed 18th to 23rd day, 0 = non-treated, 100 = complete kill
rice [11] = assay: Test Example 2: soil surface treatment, upland pot test; type: in vivo, Oryza sativa L.; settings: active ingredient 500 g/ha, observed 20th to 28th day
Procedure, shortened: as §2

corn [12] = assay: as above; type: in vivo, Zea mays L.; settings: active ingredient 500 g/ha, observed 20th to 28th day
Procedure, shortened: as §2

barnyardgrass [13] = assay: Test Example 1: foliage treatment, upland pot test; type: in vivo, Echinochloa crus-galli L.; settings: active ingredient 500 g/ha, observed 18th to 23rd day, 0 = non-treated, 100 = complete kill
Procedure, shortened: as §3

corn [14] = assay: Test Example 1: foliage treatment, upland pot test; type: in vivo, Zea mays L.; settings: crop, active ingredient 500 g/ha, observed 18th to 23rd day, 0 = non-treated, 100 = complete kill
Procedure, shortened: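 Corn seeds were sown in upland field soil held in a 1/170,000 ha pot and grown to the 2.1 to 3.2 leaf stage. A wettable powder or emulsifiable concentrate of the test compound was diluted with water at 500 L/ha, given 0.1% (v/v) agricultural spreader, and sprayed onto the foliage with a small sprayer. Growth controlling degree (%) was scored visually 18th to 23rd days later, from 0 (non-treated) to 100 (complete kill).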

velvetleaf [15] = assay: Test Example 2: soil surface treatment, upland pot test; type: in vivo, Abutilon theophrasti MEDIC.; settings: active ingredient 500 g/ha, observed 20th to 28th day
Procedure, shortened: as §2

redroot pigweed [16] = assay: as above; type: in vivo, Amaranthus retroflexus L.; settings: active ingredient 500 g/ha, observed 20th to 28th day
Procedure, shortened: as §2

green foxtail [17] = assay: Test Example 1: foliage treatment, upland pot test; type: in vivo, Setaria viridis L.; settings: active ingredient 500 g/ha, observed 18th to 23rd day, 0 = non-treated, 100 = complete kill
crabgrass [18] = assay: Test Example 2: soil surface treatment, upland pot test; type: in vivo, Digitaria sanguinalis L.; settings: active ingredient 500 g/ha, observed 20th to 28th day
Procedure, shortened: as §2

barnyardgrass [19] = assay: as above; type: in vivo, Echinochloa crus-galli L.; settings: active ingredient 500 g/ha, observed 20th to 28th day
Procedure, shortened: as §2

japanese ribbon wapato = assay: Test Example 3: paddy pot test, application under submerged conditions; type: in vivo, Sagittaria pygniaea; settings: active ingredient 250 g/ha; submerged application at primary leaf stage; visually observed 14 days after application; 0 = non-treated, 100 = complete kill
Procedure, shortened: as §1

Structure (SMILES)	Growth controlling degree (%) Barnyardgrass (barnyardgrass [1]) [%]	Growth controlling degree (%) Soyabean (soybean [2]) [%]	Growth controlling degree (%) Japanese bulrush (japanese bulrush) [%]	Growth controlling degree (%) Redroot pigweed (redroot pigweed [3]) [%]	Growth controlling degree (%) Prickly sida (prickly sida [4]) [%]	Growth controlling degree (%) Green foxtail (green foxtail [5]) [%]	Growth controlling degree (%) Rice (rice [6]) [%]	Growth controlling degree (%) Soybean (soybean [7]) [%]	Growth controlling degree (%) Rice (rice (var. Nihonbare)) [%]	Growth controlling degree (%) Prickly sida (prickly sida [8]) [%]	Growth controlling degree (%) Crabgrass (crabgrass [9]) [%]	Growth controlling degree (%) Velvetleaf (velvetleaf [10]) [%]	Growth controlling degree (%) Rice (rice [11]) [%]	Growth controlling degree (%) Corn (corn [12]) [%]	Growth controlling degree (%) Barnyardgrass (barnyardgrass [13]) [%]	Growth controlling degree (%) Corn (corn [14]) [%]	Growth controlling degree (%) Velvetleaf (velvetleaf [15]) [%]	Growth controlling degree (%) Redroot pigweed (redroot pigweed [16]) [%]	Growth controlling degree (%) Green foxtail (green foxtail [17]) [%]	Growth controlling degree (%) Crabgrass (crabgrass [18]) [%]	other results
Cc1ccccc1CC(=O)N(C)C(c1cnccc1C(F)(F)F)C(C)C (stereo not drawn) [I-36]	100	10	95	80	100	98	10	70	10	90	98	70	30	20	95	35	50	80	70	98	Growth controlling degree (%) Barnyardgrass (barnyardgrass [19]): 100%; Growth controlling degree (%) Japanese ribbon wapato (japanese ribbon wapato): 90%
COc1ccc(CC(=O)N(C)C(c2cnccc2C(F)(F)F)C(C)C)cc1 (stereo not drawn) [I-38]	100	0	70	80	100	80	10	60	30	70	70	90	20	10	70	40	0	80	60	90	Growth controlling degree (%) Barnyardgrass (barnyardgrass [19]): 100%; Growth controlling degree (%) Japanese ribbon wapato (japanese ribbon wapato): 85%
CCC(=O)N(C)C(c1cnccc1C(F)(F)F)C(C)C (stereo not drawn) [I-163]	100	40	99	80	95	100	80	80	60	80	98	70	50	60	90	90	90	70	90	100	Growth controlling degree (%) Barnyardgrass (barnyardgrass [19]): 100%; Growth controlling degree (%) Japanese ribbon wapato (japanese ribbon wapato): 90%

Source: patent US20050239656A1, “Pyridine compounds or salts thereof and herbicides containing the same” (priority 2002, published 2005)
